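Following 48 hours of exposure in 96-well plates, responses at five concentrations were used to interpolate endpoints linearly. Abbreviation: GI50, concentration required for 50% inhibition of growth.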 The source made the active and inactive calls. Rule as the data show it: active = GI50 up to about 1.1 µM and inactive = higher.
Legend:
Experiment in all cases: NCI-60 cell line screen, 48 h
UO-31 = test system: UO-31
A498 = test system: A498
HCC 2998 = test system: HCC 2998
TK-10 = test system: TK-10
NCI/ADR-RES = test system: NCI/ADR-RES
U-251 = test system: U-251
OVCAR-3 = test system: OVCAR-3
HT-29 = test system: HT-29
Malme-3M = test system: Malme-3M
OVCAR-8 = test system: OVCAR-8
Hs-578T = test system: Hs-578T
MDA-N = test system: MDA-N
CCRF-CEM = test system: CCRF-CEM
SN12C = test system: SN12C
NCI-H226 = test system: NCI-H226
HOP-92 = test system: HOP-92
NCI-H522 = test system: NCI-H522
UACC-257 = test system: UACC-257
K562 = test system: K562
M14 = test system: M14

Measured: GI50

CC(=O)Oc1ccc2cc(-c3ccc(OC(C)=O)c(OC(C)=O)c3)c(=O)oc2c1
inactive: UO-31 56 µM | A498 34.4 µM | HCC 2998 > 100 µM | TK-10 26.5 µM | NCI/ADR-RES 40.7 µM | U-251 67.1 µM | OVCAR-3 18.4 µM | HT-29 > 100 µM | Malme-3M > 100 µM | OVCAR-8 > 100 µM | Hs-578T 54.2 µM | MDA-N > 100 µM | CCRF-CEM 42.1 µM | SN12C > 100 µM | NCI-H226 > 100 µM | HOP-92 43.4 µM | NCI-H522 44.4 µM | UACC-257 97.9 µM | K562 49.8 µM | M14 74.8 µM
